Measured values from publication PMC7693160 (Pharmaceutics, 2020).
Values joined by “and” are separate entries in the source; they are usually repeats but may differ in a detail not shown here. Equal entries are not always repeated. Where two headings read alike, the source gives them in different places. Marks after values point to notes of the source that are not given here.

What was measured:
physchem = format: physicochemical
From the text: An experimental estimate of FLU pKa was obtained by fitting the Henderson–Hasselbalch equation (Equation (1)) to the mean aqueous equilibrium solubility (Si) values using the SIVA Toolkit version 3.0 (SIVA 3; Certara, Simcyp Division; Sheffield, UK). The lowest reported value in buffers was assumed to represent the intrinsic solubility (S0) . The pKa was then compared with values available in the literature to confirm the validity of the aqueous solubility parameter estimates. (1) Si=S0·10 ^pH−pKa The impact of bile salt concentration BS and subsequent formation of micelles on the solubility of FLU was investigated. […] Estimates of the logarithm of the micelle-water partition coefficient for the neutral Km:w,unionized and ionized drug Km:w,ionized were obtained to quantify the micelle-mediated solubility. […] Estimation of the relevant parameters was performed using the Nelder–Mead algorithm with weighting by the reciprocal of the predicted values. All estimates based on the in vitro solubility data were used as in silico input parameters for the development of the physiologically based pharmacokinetic (PBPK) model.

[1] = parameters: method as in earlier work; conditions: 55 (55, 60); cited from earlier work
UGT2B7 = conditions: Recombinant UGT; cited from earlier work
[2] = test system: tooth pulp-evoked potentials (TPEP) amplitude and subjective pain intensity rating; conditions: cited from earlier work; for Rmax obs: 100 mg tablet; for TRmax obs: median
Caco-2 cells = conditions: cited from earlier work
CYP2C9 1*/1* = conditions: Recombinant CYP (fu,mic = 1), cited from earlier work
CYP2C9 3*/3* = conditions: Recombinant CYP (fu,mic = 1), cited from earlier work
[3] = cited from earlier work
CYP2C9 = conditions: cited from earlier work
[4] = 1st value, ref Lee et al. (2003) as printed
[5] = 2nd value, ref Lee et al. (2015) as printed
[6] = po sol s.d. 40 mg, CYP2C9 1*/1*
[7] = po sol s.d. 40 mg, CYP2C9 1*/3*
[8] = po tab (Froben) s.d. 100 mg, ref 4
[9] = po tab (Froben) s.d. 100 mg, ref 38
[10] = po tab s.d. 50 mg, CYP2C9 1*/1*
[11] = po tab s.d. 50 mg, CYP2C9 1*/1*, median
[12] = po tab s.d. 50 mg, CYP2C9 1*/2*
[13] = po tab s.d. 50 mg, CYP2C9 1*/3*
[14] = po tab s.d. 50 mg, CYP2C9 1*/3*, median
[15] = po tab s.d. 50 mg, CYP2C9 3*/3*, individual values (n = 2)
[16] = FLU po 50 mg s.d. + fluconazole po 200 mg q.d. x7, interval 2 h, CYP2C9 1*/1*, median
[17] = FLU po 50 mg s.d. + fluconazole po 200 mg q.d. x7, interval 2 h, CYP2C9 1*/3*
[18] = FLU po 50 mg s.d. + fluconazole po 200 mg q.d. x7, interval 2 h, CYP2C9 3*/3*, individual values (n=2)
[19] = FLU po 50 mg s.d. + fluconazole po 400 mg q.d. x7, interval 2 h, CYP2C9 1*/1*
[20] = FLU po 50 mg s.d. + fluconazole po 400 mg q.d. x7, interval 2 h, CYP2C9 1*/3*
[21] = FLU po 50 mg s.d. + fluconazole po 400 mg q.d. x7, interval 2 h, CYP2C9 3*/3*, individual values (n=2)
[22] = FLU po 50 mg s.d. + fluconazole po 400 mg q.d. x7, interval 2 h
[23] = FLU po 50 mg s.d. + fluconazole po 400 mg s.d., interval 2 h, ref 47
[24] = FLU po 50 mg s.d. + fluconazole po 400 mg s.d., interval 2 h, ref 48
[25] = FLU po 50 mg s.d. + rifampicin po 600 mg q.d. x5, interval 0 h, ref Daali et al.
[26] = FLU po 100 mg s.d. + fluconazole po 200 mg b.i.d. x2, interval 0.5 h, geometric mean, ref 44
[27] = FLU po 100 mg s.d. + fluconazole po 200 mg b.i.d. x2, interval 0.5 h, geometric mean, ref 45
[28] = FLU po 100 mg s.d. + fluconazole po 200 mg b.i.d. x2, interval 0.5 h, ref 46

For `CC(C(=O)O)c1ccc(-c2ccccc2)c(F)c1` (centres unmarked) [flurbiprofen], the pKa (physchem) is given as 4.05, the “CYP2C9 1*/2*-Vmax” value (CYP2C9 1*/2*) is given as 11.53 pmol/min/pmol CYP and the “logPo:w” value [1] is given as 3.99. The Km (UGT2B7) was 50.2 µM, the UGT2B7-Vmax (UGT2B7) was 119.7 pmol/min/mg protein and the Rmax obs ([2]; Pain intensity reduction) was 53.1%. The AUCE obs ([2]; Pain intensity reduction) was 224.2 %·h, the TRmax obs ([2]; Pain intensity reduction) was 4.00 h and the Rmax obs ([2]; TPEP amplitude reduction) was 47.3%. For the same compound, the AUCE obs ([2]; TPEP amplitude reduction) was 224.2 %·h, the TRmax obs ([2]; TPEP amplitude reduction) was 4.00 h and the “Papp, Caco-2” value (Caco-2 cells) was 2.01e-05 cm/s. The “CYP2C9 1*/1*-Vmax” value (CYP2C9 1*/1*) was 15.79 pmol/min/pmol CYP, the Km (CYP2C9 1*/1*; read-out: CYP2C9 1*/1*-Km) was 8.76 µM and the “CYP2C9 3*/3*-Vmax” value (CYP2C9 3*/3*) was 8.901 pmol/min/pmol CYP. For the same compound, the Km (CYP2C9 3*/3*; read-out: CYP2C9 3*/3*-Km) was 23.2 µM, the “observed decrease in CYP2C9 1*/3* clearance” value [3, 4] was “about 37%” and the “observed increase in AUC, CYP2C9 1*/3*” value [3, 4] was 1.62 fold. The “observed decrease in CYP2C9 1*/3* clearance” value [3, 5] was roughly 44%, the “observed increase in AUC, CYP2C9 1*/3*” value [3, 5] was 1.74 fold and the “observed decrease in clearance” value ([3]; CYP2C9 1*/2* individuals) was “about 27%”. The “observed decrease in clearance” value ([3]; CYP2C9 1*/3* individuals) was roughly 40%, the Fox ([3]; PBPK input) was 0.71 and the Clrenal [3] was 0.066 L/h. The “steady-state volume of distribution (Vss)” value [3] was “around 0.1 L/kg”, the fmCYP2C9 ([3]; contribution to overall metabolic clearance) was 0.71 and the CYP2C9 metabolic contribution ([3]; human, in vivo) was “at least 71%”. The absolute bioavailability ([3]; human, in vivo) was ~ 95%, the “eliminated through metabolic oxidation to 4-hydroxy FLU” value ([3]; human, in vivo) was > 71 % of the dose and the AUCinf obs ([3]; iv s.d. 50 mg) was 35.2 mg·h/L. The fmCYP2C9 ([3]; metabolism by polymorphic CYP2C9) was no less than 0.71, the “dose excreted into urine as acyl glucuronide of (R)-FLU” value ([3]; oral racemic FLU) was 8.4% and the “dose excreted into urine as acyl glucuronide of (S)-FLU” value ([3]; oral racemic FLU) was 7.3%. For the same compound, the AUCinf obs ([3]; po orod s.d. 150 mg) was 129.8 mg·h/L, the Cmax obs ([3]; po orod s.d. 150 mg) was 16.8 mg/L and the AUCinf obs [3, 6] was 29.3 mg·h/L. For the same compound, the CL/F obs [3, 6] was 1.39 L/h, the Cmax obs [3, 6] was 5.54 mg/L and the AUCinf obs [3, 7] was 47.6 mg·h/L. The CL/F obs [3, 7] was 0.88 L/h, the Cmax obs [3, 7] was 6.93 mg/L and the AUCinf obs ([3]; po sol s.d. 67.9 mg) was 55.1 mg·h/L. For the same compound, the Cmax obs ([3]; po sol s.d. 67.9 mg) was 10.8 mg/L, the AUCinf obs ([3]; po sol s.d. 100 mg) was 82.7 mg·h/L and the CL/F obs ([3]; po sol s.d. 100 mg) was 1.28 L/h. For the same compound, the Cmax obs ([3]; po sol s.d. 100 mg) was 14.2 mg/L, the AUCinf obs ([3]; po tab (Ansaid) s.d. 100 mg) was 80.5 mg·h/L and the Cmax obs ([3]; po tab (Ansaid) s.d. 100 mg) was 12.8 mg/L. The AUCinf obs ([3]; po tab (Ansaid) s.d. 200 mg) was 161.3 mg·h/L, the CL/F obs ([3]; po tab (Ansaid) s.d. 200 mg) was 1.32 L/h and the Cmax obs ([3]; po tab (Ansaid) s.d. 200 mg) was 21.4 mg/L. The AUCinf obs ([3]; po tab (Ansaid) s.d. 300 mg) was 233.9 mg·h/L, the CL/F obs ([3]; po tab (Ansaid) s.d. 300 mg) was 1.36 L/h and the Cmax obs ([3]; po tab (Ansaid) s.d. 300 mg) was 29.5 mg/L. The AUCinf obs [3, 8] was 87.8 mg·h/L, the CL/F obs [3, 8] was 1.27 L/h and the Cmax obs [3, 8] was 13.2 mg/L. For the same compound, the AUCinf obs [3, 9] was 82.3 mg·h/L, the Cmax obs [3, 9] was 13.3 mg/L and the AUCinf obs [3, 10] was 29.4 mg·h/L. The CL/F obs [3, 10] was 1.77 L/h, the Cmax obs [3, 10] was 5.38 mg/L and the AUCinf obs [3, 11] was 30.8^a mg/L·h. The CL/F obs [3, 11] was 1.6 ^a L/h, the Cmax obs [3, 11] was 6.1 ^a mg/L and the AUCinf obs [3, 12] was 40.7 mg·h/L. For the same compound, the CL/F obs [3, 12] was 1.30 L/h, the Cmax obs [3, 12] was 4.55 mg/L and the AUCinf obs [3, 13] was 51.1 mg·h/L. The CL/F obs [3, 13] was 1.00 L/h, the Cmax obs [3, 13] was 5.42 mg/L and the AUCinf obs [3, 14] was 53.7 ^a mg/L·h. The CL/F obs [3, 14] was 0.9 ^a L/h, the Cmax obs [3, 14] was 8.9 ^a mg/L and the AUCinf obs [3, 15] was 85.8 mg·h/L and 119 mg·h/L. The CL/F obs [3, 15] was 0.6 L/h and 0.4 L/h, the Cmax obs [3, 15] was 8 mg/L and 9.4 mg/L and the AUCinf obs ([3]; po tab s.d. 100 mg) was 67.7 mg·h/L. For the same compound, the CL/F obs ([3]; po tab s.d. 100 mg) was 1.52 L/h, the Cmax obs ([3]; po tab s.d. 100 mg) was 12.9 mg/L and the AUCinf obs ([3]; po tab s.d. 150 mg) was 124.3 mg·h/L. For the same compound, the Cmax obs ([3]; po tab s.d. 150 mg) was 15.2 mg/L, the “fraction absorbed (fa)” value ([3]; small intestine) was “greater than 95%” and the “DDI AUC Ratio obs” value (CYP2C9; [16]) was 2.02 ^a. The “DDI CL/F Ratio obs” value (CYP2C9; [16]) was 0.5 ^a, the “DDI Cmax Ratio obs” value (CYP2C9; [16]) was 1.03 ^a and the “DDI AUC Ratio obs” value (CYP2C9; [17]) was 1.8. The “DDI CL/F Ratio obs” value (CYP2C9; [17]) was 0.56, the “DDI Cmax Ratio obs” value (CYP2C9; [17]) was 0.87 and the “DDI AUC Ratio obs” value (CYP2C9; [18]) was 1.58 and 1.28. The “DDI CL/F Ratio obs” value (CYP2C9; [18]) was 0.75 and 0.66, the “DDI Cmax Ratio obs” value (CYP2C9; [18]) was 1.08 and 0.91 and the “DDI AUC Ratio obs” value (CYP2C9; [19]) was 3.03. The “DDI CL/F Ratio obs” value (CYP2C9; [19]) was 0.31, the “DDI Cmax Ratio obs” value (CYP2C9; [19]) was 0.99 and the “DDI AUC Ratio obs” value (CYP2C9; [20]) was 2.48. The “DDI CL/F Ratio obs” value (CYP2C9; [20]) was 0.44, the “DDI Cmax Ratio obs” value (CYP2C9; [20]) was 0.94 and the “DDI AUC Ratio obs” value (CYP2C9; [21]) was 1.39 and 1.12. The “DDI CL/F Ratio obs” value (CYP2C9; [21]) was 1.00 and 0.66, the “DDI Cmax Ratio obs” value (CYP2C9; [21]) was 0.54 and 0.90 and the “DDI AUC Ratio obs” value (CYP2C9; [22]) was 2.81. The “DDI CL/F Ratio obs” value (CYP2C9; [22]) was 0.35, the “DDI Cmax Ratio obs” value (CYP2C9; [22]) was 1.37 and the “DDI AUC Ratio obs” value (CYP2C9; [23]) was 2.16. The “DDI CL/F Ratio obs” value (CYP2C9; [23]) was 0.46, the “DDI Cmax Ratio obs” value (CYP2C9; [23]) was 1.24 and the “DDI AUC Ratio obs” value (CYP2C9; [24]) was 1.21. The “DDI CL/F Ratio obs” value (CYP2C9; [24]) was 0.67, the “DDI Cmax Ratio obs” value (CYP2C9; [24]) was 1.14 and the “DDI AUC Ratio obs” value (CYP2C9; [25]) was 0.56. The “DDI CL/F Ratio obs” value (CYP2C9; [25]) was 1.85, the “DDI Cmax Ratio obs” value (CYP2C9; [25]) was 0.71 and the “DDI AUC Ratio obs” value (CYP2C9; [26]) was 1.97 ^b. For the same compound, the “DDI Cmax Ratio obs” value (CYP2C9; [26]) was 1.47 ^b, the “DDI AUC Ratio obs” value (CYP2C9; [27]) was 1.71 ^b and the “DDI Cmax Ratio obs” value (CYP2C9; [27]) was 1.16 ^b. For the same compound, the “DDI CL/F Ratio obs” value (CYP2C9; FLU po 100 mg s.d. + fluconazole po 200 mg b.i.d. x2, interval 0.5 h, ref 44) was 0.5, the “DDI CL/F Ratio obs” value (CYP2C9; FLU po 100 mg s.d. + fluconazole po 200 mg b.i.d. x2, interval 0.5 h, ref 45) was 0.57 and the “DDI AUC Ratio obs” value (CYP2C9; [28]) was 1.81. The “DDI CL/F Ratio obs” value (CYP2C9; [28]) was 0.55 and the “DDI Cmax Ratio obs” value (CYP2C9; [28]) was 1.23.
